Results from patent US4753958A, “Photochemotherapy of epithelial diseases with derivatives of hematoporphyrins” (priority 1986, dated 1988).

Columns and labels:
guinea pig skin [1] = assay: Cutaneous phototoxicity after systemic (I.P.) administration and UVA; assay type: in vivo, Guinea pigs; conditions: 10 mg/kg I.P., graded 24 hours post light
Experimental: (§1) HPD, DHE, hematoporphyrin and protoporphyrin were provided by Dr. Thomas J. Dougherty, Roswell Park Memorial Institute, Buffalo, NY. Hydroxyvinyldeuteroporphyrin was obtained from Porphyrin Products, Salt Lake City, UT.
Guinea pigs were treated systemically (I.P.) with the various porphyrins, each at a dose of 10 mg/kg. Animals were then irradiated with UVA (20 J/cm^2), either at 6 hours or 24 hours post drug administration. Erythema was graded at 24 hours post light treatment.

skin cancers = conditions: cited from earlier work
psoriasis = conditions: oral methoxysalen plus long-wave ultraviolet light (PUVA); cited from earlier work
guinea pig skin [2] = assay: Cutaneous phototoxicity after intradermal administration and UVA (minimum phototoxic dose); assay type: in vivo; conditions: intradermal 5-500 μg/0.1 ml; UVA 20 J/cm^2 6 hours post injection
Experimental: as §1
(§2) Drugs were administered intradermally at doses ranging from 5-500 μg/0.1 ml. Sites were then treated with UVA (20 J/cm^2) 6 hours post drug injection.

guinea pig skin [3] = assay: Drug/UVA dosimetry with intradermal HPD and DHE; assay type: in vivo
Experimental: as §1, §2
Additional studies were done with intradermal HPD and DHE to study the drug/UVA dosimetry.

epidermal DNA synthesis = assay: Effect of topical DHE plus UVA on epidermal DNA synthesis in vivo; set-up: species or system Mini-pigs
Experimental: The topical activity of DHE was evaluated in vivo in a mini-pig model.
Mini-pigs were obtained from Charles River Laboratories, Inc. (Wilmington, MA). Drug preparations were applied to small areas of dorsal skin (ca 1 inch square) according to the selected application schedules. Six hours following the last drug application, tritiated thymidine was injected into the drug treatment sites for autoradiographic assessment of epidermal proliferation as measured by epidermal labeling index. Weinstein & Van Scott, (1965) J. Invest. Derm. 44:413.
DHE was acid precipitated from a Photofrin II solution by adjusting the pH to 3.5. The precipitated DHA was washed extensively with distilled water until the pH of the filtrate reached 6.0. The DHE powder was vacuum dried, reconstituted in distilled water, and the pH adjusted to 7.0. Aqueous DHE was then mixed with isopropanol and Azone. […] This formulation was applied to selected areas of mini-pig skin approximately 6 hours before irradiation with UVA. Epidermal DNA synthesis was assayed as described above. At 0, 24, 48, and 72 hours post-irradiation, the animals were injected at the selected sites with isotopic precursors (tritiated thymidine). The animals were biopsied one hour after isotopic injection.

malignant cells = conditions: HPD enriched for DHE, administered systemically; cited from earlier work

In the case of `CC1=C(CCC(=O)O)c2cc3[nH]c(cc4nc(cc5[nH]c(cc1n2)c(C)c5C(C)O)C(C)=C4C(C)O)c(C)c3CCC(=O)O` (stereo not shown) [hematoporphyrin], the erythema response (guinea pig skin [1]; UVA 20 J/cm^2 at 6 hours) is reported as “mild response”.
For `COc1c2occc2cc2ccc(=O)oc12` [methoxysalen], the “skin cancers in patients following PUVA” value (skin cancers) is given as “increased pattern of skin cancers” and the “clinical effectiveness in psoriasis” value (psoriasis) is given as “relatively effective for the majority of patients”.
In the case of `C=CC1=C(C)c2cc3[nH]c(cc4nc(cc5[nH]c(cc1n2)c(C)c5CCC(=O)O)C(CCC(=O)O)=C4C)c(C)c3C=C` [protoporphyrin], the erythema response (guinea pig skin [1]; UVA 20 J/cm^2 at 6 hours) is reported as “No response”.
With Hydroxyvinyldeuteroporphyrin the erythema response (guinea pig skin [1]; UVA 20 J/cm^2 at 6 hours) was “No response” and the minimum phototoxic dose (guinea pig skin [2]) was over 500 µg.
In the case of dihematoporphyrin ether [DHE], the erythema response (guinea pig skin [1]; UVA 20 J/cm^2 at 6 hours) is reported as “significant response”, the erythema response (guinea pig skin [1]; UVA 20 J/cm^2 at 24 hours, compared with 6 hours for HPD and DHE) is reported as “greater” and the minimum phototoxic dose (guinea pig skin [2]) is reported as 5 µg. For the same molecule, the “erythema, UVA at 24 hours vs 6 hours post injection” value (guinea pig skin [3]; intradermal) was “more pronounced erythema”, the “UVA dose effective in producing erythema” value (guinea pig skin [3]; intradermal DHE 5 μg/cm^2) was 1 J/cm^2 and the “erythema response compared with HPD” value (guinea pig skin [3]; intradermal DHE 5 μg/cm^2, comparable treatments) was “slightly greater than with comparable treatments with HPD”. The “area of erythema, UVA at 24 hours vs 6 hours post injection” value (guinea pig skin [3]; intradermal, local drug diffusion from injection site) was “larger area of erythema”, the “time of maximum effect post light treatment” value (epidermal DNA synthesis; 1% DHE topical plus UVA, autoradiographically and clinically) was 72 h and the “inhibition of DNA synthesis compared to vehicle control plus UVA” value (epidermal DNA synthesis; 1% DHE topical, 48% isopropanol, 4% Azone, 48% water, 5-10 applications plus UVA, FIG. 1) was “significant inhibition of DNA synthesis”. The “phototoxicity toward malignant cells” value (malignant cells) was “phototoxic properties toward malignant cells”.
